Measured values from US20240182457A1, “OXADIAZOLE-SUBSTITUTED SPIROCYCLIC COMPOUND AND APPLICATION THEREOF” (HELIOEAST PHARMACEUTICAL CO., LTD., priority 2021, published 2024).

Biological target: T1, S1PR1 (Homo sapiens, UniProt P21453)
T1 construct: expressed in transfected cells
Test: In vitro agonist activity on S1PR1 (PathHunter cell line, chemiluminescence)
Type: cell-based
Procedure: Test example 1: Evaluating the in vitro agonist activity of the compound of the present disclosure on S1PR1
Experimental purpose: To assess the agonist activity of the compound on S1PR1
I. Cell Treatment • 1. The PathHunter cell line was thawed according to standard procedures. • 2. The cells were seeded in a 384-well plate with a volume of 20 μL, and incubated at 37° C. for an appropriate duration.
II. Agonist • 1. For the agonist evaluation, the cells were co-cultured with the test samples to induce a reaction. • 2. The test stock solution was diluted 5-fold using the buffer. • 3. 5 μL of the 5-fold diluted solution was added to the cells, and incubated at 37° C. for 90 to 180 minutes. The vehicle concentration was maintained at 1%.
III. Signal Detection • 1. Either 12.5 μL or 15 μL of the PathHunter detection reagent (at a 50% v/v ratio) was added each time, followed by a 1-hour incubation at room temperature to allow for detection signal generation. • 2. Chemiluminescence signal detection was conducted using a PerkinElmer Envision™ microplate reader.
IV. Data Analysis • 1. The activity of the compound was analyzed using the CBIS suite for data analysis (ChemInnovation, CA). • 2. Formula for calculation:
% Activity=100%× (Average sample RLU—Average vehicle RLU)/(Average maximum control ligand RLU—Average vehicle RLU)

T1 sequence (P21453 whole entry): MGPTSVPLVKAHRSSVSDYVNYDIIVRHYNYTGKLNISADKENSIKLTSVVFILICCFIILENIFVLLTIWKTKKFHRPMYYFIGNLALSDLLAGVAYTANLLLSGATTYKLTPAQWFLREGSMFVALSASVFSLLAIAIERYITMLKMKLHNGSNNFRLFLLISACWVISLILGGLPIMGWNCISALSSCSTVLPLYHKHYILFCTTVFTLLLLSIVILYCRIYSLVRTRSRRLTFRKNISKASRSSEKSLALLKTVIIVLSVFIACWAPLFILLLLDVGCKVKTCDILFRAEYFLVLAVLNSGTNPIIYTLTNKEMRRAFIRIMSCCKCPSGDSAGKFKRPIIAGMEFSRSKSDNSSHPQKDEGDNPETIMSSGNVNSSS

Emax (% Activity relative to maximum control ligand): 110%
EC50 (incubated at 37° C. for 90 to 180 minutes): 0.657 nM
SMILES: CC(C)Oc1cc(-c2nc(-c3cccc4c3CCC43CCN(C(C)(C)CO)C3)no2)ccc1C#N (centres unmarked) [Compound 1]
